Experimental data as given in patent publication US9808439B2 (Macau University of Science and Technology, priority 2015, dated 2017).
Entries after “also recorded” stand apart in the source; their conditions may differ. Read-outs that look alike come from different tables or passages of the source.

What was measured:
A2780/T cells [1] = experiment: Combination index, Chou-Talalay method (CalcuSyn); assay type: cell-based, human; conditions: Homo sapiens, read-out: Dose tangeretin at Fa 0.5 (ED50), CalcuSyn simulation, alone or in combination
Method: Combination index (CI) was calculated to quantitatively depict synergistic ([…], additive (CI=1), or antagonistic (CI>1) effect. With the use of CalcuSyn software v. 2.1 (Bio-soft), synergy is further refined as synergism (combination index=0.3-0.7), strong synergism (combination index=0.1-0.3), and very strong synergism (combination index<0.1).

A2780/T cells [2] = experiment: Apoptosis by Annexin-V/PI double staining; assay type: cell-based, human
Method: After treatment, 1×10^6 cells were collected, washed and suspended in 100 μl of binding buffer (10 mM N-2-hydroxyethylpiperazine-N,-2-ethanesulfonic acid/NaOH, 140 mM NaCl, 2.5 mM CaCl2, pH 7.4). Apoptotic cells were identified by double supravital staining with 5 μl recombinant FITC (fluorescein isothiocyanate)-conjugated Annexin-V and 5 μl PI (50 μg/ml). The cells were stained for […] at room temperature in the dark, and analyzed by fluorescence-activated cell sorting cater-plus flow cytometry. Data acquisition and analysis were performed in BD FACS Aria with FlowJo software.

A2780/T cells [3] = experiment: Cell cycle analysis by flow cytometry in A2780/T; assay type: cell-based, human; conditions: tangeretin 7.53 μM alone
Method: A2780/T cells were harvested after 24-hours, 48-hour, or 72-hour treatment and washed twice with ice-cold PBS. The cells were fixed and permeabilized with 70% ice-cold ethanol overnight at 4° C. or −20° C. for 2 h. After one additional wash in PBS, cells were stained with a staining solution containing PI ([…]) and RNase A (250 μg/ml) for […] at room temperature. They were then pelleted, washed and suspended in PBS to a final concentration of 1×10^6/ml and analyzed by flow cytometry (BD FACS Aria, BD Biosciences, San Jose, Calif.).

A2780/T cells [4] = experiment: Intracellular accumulation of DOX and Flutax-2 in A2780/T; assay type: cell-based, human; conditions: 8 h, 7.53 μM tangeretin or 20 μM QND
Method: cells (5×10^6) were cultured on the cover glass (ISO LAB 20×20 mm). […] After treatment, cells were fixed in 4 wt % formaldehyde (Sigma-Aldrich). Nuclear DNA was stained with 1 μg/mL blue-fluorescent DAPI (1 mg/mL in H2O stock solution; Invitrogen D1306). One drop of fluorescent preservation solution (fluorsave reagent, CALBIOCHEM) was added before observation. Imaging was carried out for comparing the intracellular accumulation of DOX and flutax-2 with a Fluorescence Microscopy (Leica DM2500, Leica, Germany). […] Cells were detached, re-suspended in 500 μl of PBS after washed twice with cold PBS, and analyzed by flow cytometry (BD FACS Aria, BD Biosciences, San Jose, Calif.). Excitation and emission wavelengths (nm) used for DOX and flutax-2 were as follows: 480 to 585; and 496 to 524.

A2780 cells = experiment: Intracellular accumulation of DOX and Flutax-2 in A2780; assay type: cell-based, human; conditions: parental A2780, 7.53 μM tangeretin, 8 h
Method: A2780 or A2780/T cells (5×10^6) were cultured on the cover glass (ISO LAB 20×20 mm). […] After treatment, cells were fixed in 4 wt % formaldehyde (Sigma-Aldrich). Nuclear DNA was stained with 1 μg/mL blue-fluorescent DAPI (1 mg/mL in H2O stock solution; Invitrogen D1306). One drop of fluorescent preservation solution (fluorsave reagent, CALBIOCHEM) was added before observation. Imaging was carried out for comparing the intracellular accumulation of DOX and flutax-2 with a Fluorescence Microscopy (Leica DM2500, Leica, Germany).
Cells were detached, re-suspended in 500 μl of PBS after washed twice with cold PBS, and analyzed by flow cytometry (BD FACS Aria, BD Biosciences, San Jose, Calif.). Excitation and emission wavelengths (nm) used for DOX and flutax-2 were as follows: 480 to 585; and 496 to 524. Quinidine (QND, 20 μM), a known ABCB1 inhibitor, was used as a positive control.

[5] = molecular target: T1, recombinant human ABCB1 membranes (Homo sapiens, UniProt P08183); experiment: ABCB1 ATPase activity assay (Pgp-Glo); assay type: biochemical
T1 construct: purchased Promega
T1 sequence (P08183 whole entry): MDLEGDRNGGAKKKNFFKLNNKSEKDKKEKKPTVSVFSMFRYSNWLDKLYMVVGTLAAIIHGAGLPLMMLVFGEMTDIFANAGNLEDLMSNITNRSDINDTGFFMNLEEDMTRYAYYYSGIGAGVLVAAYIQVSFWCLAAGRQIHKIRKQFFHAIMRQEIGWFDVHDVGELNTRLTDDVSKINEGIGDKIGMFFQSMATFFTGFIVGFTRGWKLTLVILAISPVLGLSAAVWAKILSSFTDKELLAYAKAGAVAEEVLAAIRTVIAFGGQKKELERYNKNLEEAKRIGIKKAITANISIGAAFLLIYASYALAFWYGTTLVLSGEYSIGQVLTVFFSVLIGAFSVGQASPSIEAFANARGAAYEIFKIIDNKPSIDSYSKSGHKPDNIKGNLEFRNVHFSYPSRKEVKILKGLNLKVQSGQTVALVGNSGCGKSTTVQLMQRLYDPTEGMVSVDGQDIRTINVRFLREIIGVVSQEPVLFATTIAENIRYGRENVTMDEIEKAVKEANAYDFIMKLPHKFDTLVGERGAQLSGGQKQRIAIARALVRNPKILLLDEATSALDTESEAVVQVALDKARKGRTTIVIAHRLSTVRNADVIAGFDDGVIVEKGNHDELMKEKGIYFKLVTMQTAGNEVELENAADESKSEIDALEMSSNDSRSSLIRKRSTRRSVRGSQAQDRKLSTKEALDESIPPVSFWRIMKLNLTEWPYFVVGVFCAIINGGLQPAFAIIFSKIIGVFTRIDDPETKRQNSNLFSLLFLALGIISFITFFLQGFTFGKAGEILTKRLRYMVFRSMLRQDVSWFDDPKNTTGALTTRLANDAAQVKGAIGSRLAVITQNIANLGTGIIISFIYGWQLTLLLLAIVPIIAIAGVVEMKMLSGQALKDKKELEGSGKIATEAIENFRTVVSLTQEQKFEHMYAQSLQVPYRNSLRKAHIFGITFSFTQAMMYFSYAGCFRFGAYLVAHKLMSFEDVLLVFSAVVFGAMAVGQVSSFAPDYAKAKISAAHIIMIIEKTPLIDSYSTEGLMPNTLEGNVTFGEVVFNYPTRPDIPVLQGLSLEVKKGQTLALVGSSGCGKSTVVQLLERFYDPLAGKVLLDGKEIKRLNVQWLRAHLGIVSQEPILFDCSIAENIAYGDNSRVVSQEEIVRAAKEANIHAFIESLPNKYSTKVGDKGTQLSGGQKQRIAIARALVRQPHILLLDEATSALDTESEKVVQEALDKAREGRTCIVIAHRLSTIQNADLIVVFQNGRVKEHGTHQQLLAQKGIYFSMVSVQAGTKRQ
Method: Sodium orthovanadate (Na3VO4) was used as an ABCB1 ATPase inhibitor. […] Luminescence was initiated by ATP detection buffer. The plate (white opaque 96-well, corning, USA) was further incubated at room temperature for […] to develop luminescent signal, and was read with luminometer (infinite M200 PRO,TECAN, Switzerland).

[6] = test system: MDR1 mRNA / ABCB1 protein in A2780/T cells; experiment: RT-PCR and Western blot of ABCB1 expression; assay type: cell-based, human; conditions: tangeretin 0.83-7.53 μM, 48 hours
Method: RT-PCR was performed to evaluate MDR1 mRNA expression. mRNA from cell lysates were purified by binding to poly(dT) magnetic beads (Life technologies) and reverse transcribed by using SuperScript II (Life technologies). Standard quantitative RT-PCR was performed in duplicates at least two to three times by using SYBR Green (Molecular Probes) protocols on the ViiA™ 7 Real-Time PCR System (Life technologies). The primer sequences: 5′-[…]-3′ (SEQ ID […] NO:1) and 3′-[…]-5′ (SEQ ID NO:2) for MDR1, and 5′-[…]-3′ (SEQ ID NO:3) and 3′-[…]-[…]-5′ (SEQ ID NO:4) for control gene eukaryotic translation initiation factor (TIF). RT-PCR data was normalized by measuring average cycle threshold (Ct) ratios between candidate genes and control gene TIF.
The total cellular samples were harvested and rinsed twice with ice-cold PBS buffer. Cell extracts were lysed in RIPA buffer (50 mM Tris (pH 7.4), 150 mM NaCl, 1% Triton X-100, 1% sodium deoxycholate, 0.1% SDS, sodium orthovanadate, sodium fluoride and EDTA) containing protease inhibitor cocktails (Roche Life Science, USA). Protein concentration was determined using the BCA protein assay kit. Equal amounts of cell lysates were resolved by SDS-PAGE and subsequently electrophoretically transferred onto PVDF membranes (Millipore, Darmstadt, Germany). […]

p53 = experiment: Western blot of p53 expression; assay type: cell-based, human; conditions: tangeretin at various concentrations, 48 hours, Western blot
Method: The total cellular samples were harvested and rinsed twice with ice-cold PBS buffer. Cell extracts were lysed in RIPA buffer (50 mM Tris (pH 7.4), 150 mM NaCl, 1% Triton X-100, 1% sodium deoxycholate, 0.1% SDS, sodium orthovanadate, sodium fluoride and EDTA) containing protease inhibitor cocktails (Roche Life Science, USA). Protein concentration was determined using the BCA protein assay kit. Equal amounts of cell lysates were resolved by SDS-PAGE and subsequently electrophoretically transferred onto PVDF membranes (Millipore, Darmstadt, Germany). After blocking in tris-buffered saline containing 0.1% of Tween20 (TBST) with 5% (w/v) skim milk (Nestle Carnation, New Zealand) for 2 h at room temperature, the membranes were incubated with primary and secondary antibodies and subsequently visualized with an enhanced chemiluminescence detection kit (Thermo Scientific™ SuperSignal™ West Pico Chemiluminescent Substrate, USA). β-Actin was used as the loading control for the experimental data analysis.

[7] = molecular target: P-gp (ABCB1 transporter) in Caco-2 cells (Homo sapiens, UniProt P08183)
Sequence of P-gp (ABCB1 transporter) in Caco-2 cells (P08183 whole entry): as above

[8] = human, plasma; cited from earlier work
[9] = rat, plasma; cited from earlier work
in vitro [10] = conditions: human, A2780/T cells
Method: (§1) Sulphorhodamine B (SRB) assays were carried out as previously described to assess cell density, based on sensitive measure of total cellular protein, which performed similarly compared with other proliferation assays such as MTT assay. Briefly, cells were seeded into flat bottomed 96-well plates at an initial density of 7.5×10^3 per well before treatment. […] After removing the medium, cells were fixed in 10% trichloroacetic acid for 1 h at 4° C. and then washed with water five times. 0.4% SRB dissolved in 1% v/v acetic acid was added and incubated 30 mm for staining. The cells were quickly washed with 1% acetic acid and left to dry overnight. The protein bound SRB was solubilized by adding 200 μl 10 mM Tris buffer per well and measured at wavelengths 490 nm using a plate reader (Spectra MAX 250; Molecular Devices, Sunnyvale, Calif.).

in vitro [11] = conditions: human, A2780 cells
A2780/T cells [12] = experiment: SRB cell cytotoxicity assay in A2780/T; conditions: tangeretin at 7.53 μM, all cell lines
Method: as §1

COc1ccc(-c2cc(=O)c3c(OC)c(OC)c(OC)c(OC)c3o2)cc1 [Tangeretin, 5,6,7,8,4′-pentamethoxyflavone]
EC50 (A2780/T cells [1]): 67.5 µM | apoptosis induction, single treatment (A2780/T cells [2]; 7.53 μM tangeretin or 0.94 μM PTX alone): did not show apoptosis induction | apoptosis induced by 0.94 μM PTX (A2780/T cells [2]; with 0.83, 2.51 and 7.53 μM tangeretin, A2780/T): significantly increase apoptosis | effect on the cell cycle (A2780/T cells [3]): no effect | intracellular accumulations of DOX and Flutax-2 (A2780/T cells [4]): remarkably enhanced; also recorded: higher than that of untreated A2780/T | DOX and Flutax-2 levels (A2780 cells): did not significantly alter; also recorded: no effect | IC50 ([5]; 200 μM verapamil, read-out: IC50 for inhibiting verapamil-stimulated P-gp ATPase activity): 7.87 µM | EC50 ([5]; recombinant human ABCB1 membranes, 37° C., 40 min, read-out: EC50 for stimulating P-gp ATPase activity): 11.6 µM | maximal stimulation of ATPase activity ([5]; relative to the basal activity): 3 fold | mRNA or protein level of ABCB1 [6]: did not influence | mRNA or protein level of ABCB1 ([6]; listed as tangeretin): did not alter | p53 expression (p53): unregulated the p53 expression | inhibitory effect on efflux compared with 20 μM QND [7]: more potent than that of QND | inhibitory effect on efflux compared with 20 μM QND ([7]; human, 2 h, 2.51 μM): stronger than that of 20 μM QND | Cmax [8]: 1000 to 5000 nM | Cmax [9]: 1000 to 5000 nM | IC50 (in vitro [10]): 36.4 µM | IC50 (in vitro [11]): 35.6 µM | cells survived (A2780/T cells [12]): more than 90%
